This is an account of results in patent US20210047304A1, “Bromodomain Inhibitors” (AbbVie Inc., priority 2016, published 2021).

The test addresses BRD4 (BDI_K57-E168) (Homo sapiens, UniProt O60885). Kind of test: TR-FRET bromodomain binding assay, BRD4 BDI. Background: Time-resolved FRET reads energy transfer from a long-lived donor to a nearby acceptor.

As a reminder, the Ki is a dissociation constant, usually derived from enzyme kinetics or from competition with a known ligand. Higher therefore signals a looser hold on the target. With `Cc1cc(F)cc(C)c1Oc1ccc(C(C)(C)O)cc1-c1cn(C)c(=O)cc1O[C@H]1CC[C@H](NC(=O)c2ccccc2C(=O)O)CC1` [Example 45, 2-{[trans-4-({5-[2-(4-fluoro-2,6-dimethylphenoxy)-5-(2-hydroxypropan-2-yl)phenyl]-1-methyl-2-oxo-1,2-dihydropyridin-4-yl}oxy)cyclohexyl]carbamoyl}benzoic acid], the Ki was determined as 4170 nM. That is a single-digit micromolar value.
Then `Cc1cc(F)cc(C)c1Oc1ccc(C(C)(C)O)cc1-c1cn(C)c(=O)cc1O[C@H]1CC[C@H](N2CCNC2=O)CC1` [Example 35, 5-[2-(4-fluoro-2,6-dimethylphenoxy)-5-(2-hydroxypropan-2-yl)phenyl]-1-methyl-4-{[trans-4-(2-oxoimidazolidin-1-yl)cyclohexyl]oxy}pyridin-2(1H)-one], with 1810 nM; and `Cc1cccc(C)c1Oc1ccc(C(C)(C)O)cc1-c1cn(C)c(=O)cc1O[C@H]1CC[C@H](N2CCCC2=O)CC1` [Example 27, 5-[2-(2,6-dimethylphenoxy)-5-(2-hydroxypropan-2-yl)phenyl]-1-methyl-4-{[trans-4-(2-oxopyrrolidin-1-yl)cyclohexyl]oxy}pyridin-2(1H)-one], with 1900 nM.
Turning to `C=CCCCC(=O)N[C@H]1CC[C@H](Oc2cc(=O)n(C)cc2-c2cc(C(C)(C)O)ccc2Oc2c(C)cc(F)cc2C)CC1` [Example 36, N-[trans-4-({5-[2-(4-fluoro-2,6-dimethylphenoxy)-5-(2-hydroxypropan-2-yl)phenyl]-1-methyl-2-oxo-1,2-dihydropyridin-4-yl}oxy)cyclohexyl]hex-5-enamide], the inhibition constant Ki amounted to 5790 nM.
Then `Cc1cc(F)cc(C)c1Oc1ccc(C(C)(C)O)cc1-c1cn(C)c(=O)cc1O[C@H]1CC[C@H](NC(=O)C(C)(C)N)CC1` [Example 139, N-[trans-4-({5-[2-(4-fluoro-2,6-dimethylphenoxy)-5-(2-hydroxypropan-2-yl)phenyl]-1-methyl-2-oxo-1,2-dihydropyridin-4-yl}oxy)cyclohexyl]-2-methylalaninamide], with 645 nM; and `Cc1cc(F)cc(C)c1Oc1ccc(C(C)(C)O)cc1-c1cn(C)c(=O)cc1O[C@H]1CC[C@H](NC(=O)C23CC(N)(C2)C3)CC1` (relative stereo) [Example 93, 3-amino-N-[trans-4-({5-[2-(4-fluoro-2,6-dimethylphenoxy)-5-(2-hydroxypropan-2-yl)phenyl]-1-methyl-2-oxo-1,2-dihydropyridin-4-yl}oxy)cyclohexyl]bicyclo[1.1.1]pentane-1-carboxamide], with 1190 nM; and `Cc1cc(F)cc(C)c1Oc1ccc(C(C)(C)O)cc1-c1cn(C)c(=O)cc1O[C@H]1CC[C@H](n2ncccc2=O)CC1` [Example 141, 2-[trans-4-({5-[2-(4-fluoro-2,6-dimethylphenoxy)-5-(2-hydroxypropan-2-yl)phenyl]-1-methyl-2-oxo-1,2-dihydropyridin-4-yl}oxy)cyclohexyl]pyridazin-3(2H)-one], with 4090 nM.
Molecule `Cc1cc(F)cc(C)c1Oc1ccc(C(C)(C)O)cc1-c1cn(C)c(=O)cc1O[C@H]1CC[C@H](N2CCOC2=O)CC1` [Example 38, 5-[2-(4-fluoro-2,6-dimethylphenoxy)-5-(2-hydroxypropan-2-yl)phenyl]-1-methyl-4-{[trans-4-(2-oxo-1,3-oxazolidin-3-yl)cyclohexyl]oxy}pyridin-2(1H)-one] displayed an inhibition constant Ki of 2500 nM.
For the molecule `CCNC(=O)[C@H]1CC[C@@H](Oc2cc(=O)n(C)cc2-c2cc(C(C)(C)O)ccc2Oc2c(C)cc(F)cc2C)CC1` [Example 76, cis-N-ethyl-4-({5-[2-(4-fluoro-2,6-dimethylphenoxy)-5-(2-hydroxypropan-2-yl)phenyl]-1-methyl-2-oxo-1,2-dihydropyridin-4-yl}oxy)cyclohexane-1-carboxamide], affinity was put at a Ki of 7690 nM. This Ki is about 3.1-fold higher than that of the molecule before.
Next, `Cc1cc(F)cc(C)c1Oc1ccc(C(C)(C)O)cc1-c1cn(C)c(=O)cc1O[C@H]1CC[C@H](N2C(=O)NC(C)(C)C2=O)CC1` [Example 140, 3-[trans-4-({5-[2-(4-fluoro-2,6-dimethylphenoxy)-5-(2-hydroxypropan-2-yl)phenyl]-1-methyl-2-oxo-1,2-dihydropyridin-4-yl}oxy)cyclohexyl]-5,5-dimethylimidazolidine-2,4-dione]: 11200 nM.
The molecule `Cc1cc(F)cc(C)c1Oc1ccc(C(C)(C)O)cc1-c1cn(C)c(=O)cc1O[C@H]1CC[C@H](NC(=O)C2CC2)CC1` [Example 50, N-[trans-4-({5-[2-(4-fluoro-2,6-dimethylphenoxy)-5-(2-hydroxypropan-2-yl)phenyl]-1-methyl-2-oxo-1,2-dihydropyridin-4-yl}oxy)cyclohexyl]cyclopropanecarboxamide] displayed a Ki of 2830 nM.
For `Cc1cc(F)cc(C)c1Oc1ccc(C(C)(C)O)cc1-c1cn(C)c(=O)cc1O[C@H]1CC[C@H](N2C(=O)[C@H](C)N(C)C2=O)CC1` [Example 83, (5S)-3-[trans-4-({5-[2-(4-fluoro-2,6-dimethylphenoxy)-5-(2-hydroxypropan-2-yl)phenyl]-1-methyl-2-oxo-1,2-dihydropyridin-4-yl}oxy)cyclohexyl]-1,5-dimethylimidazolidine-2,4-dione], the Ki worked out at 5890 nM.
As for `CC(=O)N[C@H]1CC[C@H](Oc2cc(=O)n(C)cc2-c2cc(C(C)(C)O)ccc2Oc2c(C)cc(C(C)(C)O)cc2C)CC1` [Example 18, N-{trans-4-[(5-{5-(2-hydroxypropan-2-yl)-2-[4-(2-hydroxypropan-2-yl)-2,6-dimethylphenoxy]phenyl}-1-methyl-2-oxo-1,2-dihydropyridin-4-yl)oxy]cyclohexyl}acetamide], the affinity corresponds to a Ki of 982 nM.
In the case of `Cc1cc(F)cc(C)c1Oc1ccc(C(C)(C)O)cc1-c1cn(C)c(=O)cc1O[C@H]1CC[C@H](NC(=O)C(C)(C)CCO)CC1` [Example 47, N-[trans-4-({5-[2-(4-fluoro-2,6-dimethylphenoxy)-5-(2-hydroxypropan-2-yl)phenyl]-1-methyl-2-oxo-1,2-dihydropyridin-4-yl}oxy)cyclohexyl]-4-hydroxy-2,2-dimethylbutanamide], the inhibitory constant (Ki) came to 4020 nM.
Next, `Cc1cc(F)cc(C)c1Oc1ccc(C(C)(C)O)cc1-c1cn(C)c(=O)cc1OC1CCC(C)(N2CCCC2=O)CC1` (stereo not drawn) [Example 34, 5-[2-(4-fluoro-2,6-dimethylphenoxy)-5-(2-hydroxypropan-2-yl)phenyl]-1-methyl-4-{[trans-4-methyl-4-(2-oxopyrrolidin-1-yl)cyclohexyl]oxy}pyridin-2(1H)-one]: 890 nM; `Cc1cc(F)cc(C)c1Oc1ccc(C(C)(C)O)cc1-c1cn(C)c(=O)cc1O[C@H]1CC[C@H](NC(=O)CC(C)(C)CO)CC1` [Example 118, N-[trans-4-({5-[2-(4-fluoro-2,6-dimethylphenoxy)-5-(2-hydroxypropan-2-yl)phenyl]-1-methyl-2-oxo-1,2-dihydropyridin-4-yl}oxy)cyclohexyl]-4-hydroxy-3,3-dimethylbutanamide]: 1910 nM; `COC(=O)NC[C@H]1C[C@H](Oc2cc(=O)n(C)cc2-c2cc(C(C)(C)O)ccc2Oc2c(C)cc(F)cc2C)C1` [Example 7, methyl {[trans-3-({5-[2-(4-fluoro-2,6-dimethylphenoxy)-5-(2-hydroxypropan-2-yl)phenyl]-1-methyl-2-oxo-1,2-dihydropyridin-4-yl}oxy)cyclobutyl]methyl}carbamate]: 906 nM.
